According to the supplement of paper PMC11208160:
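Also: IS621 bridge recombinase in Escherichia coli cells against a fixed T5 target plasmid.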

Assay: recombinant UMI read abundance after kanamycin selection (control-corrected) (log10(CPM+1)); higher = more efficient recombination; extreme values may be limits of the assay; sequences stand for … in AGTGCAGAGAAAATCGGCCAGTTTTCTCTGCCTGCAGTCCGCATGCCGTGGGACCCCTTGGGTTCTAACCTGTTGCCTAGATTTATGCAGCGGACTGCCTTTCTCCCAAAGTGATAAACCGG…AGGTTGGTTTCACT; site = the 11-nt donor
Procedure, shortened: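 Sequencing read counts were converted to CPM, averaged over two replicates and scaled by control-derived factors. Results are given as log10(CPM+1). The reads covered the donor–target junction of recombinant UMIs from a pooled Escherichia coli screen of donor and donor-binding-loop pairs for the IS621 bridge recombinase.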
In the case of “TGTAAACCATGGACCGGTTTTCCCGGTAATCCGTATTTGAC (site TGTACACCTGT)”, the “recombinant UMI read abundance (log10)” value is reported as 0.
For “CTTCAGCCATGGACCGGTTTTCCCGGTAATCCGTATTTGGA (site CTTCAGCCTTC)”, the “recombinant UMI read abundance (log10)” value was 0.
In the case of “CGTGGAACATGGACCGGTTTTCCCGGTAATCCGTATTTGTT (site CGTGGAACTTA)”, the “recombinant UMI read abundance (log10)” value is reported as 0.841.
In the case of “CTCATATCATGGACCGGTTTTCCCGGTAATCCGTATTTGTC (site CTCATATCTGA)”, the “recombinant UMI read abundance (log10)” value is reported as 1.5.
For “ACACACCCATGGACCGGTTTTCCCGGTAATCCGTATTTGAC (site ACACATCCTGT)”, the “recombinant UMI read abundance (log10)” value was 0.471.
For “CTAGTATCATGGACCGGTTTTCCCGGTAATCCGTATTTGAC (site CGTGTATCTGT)”, the “recombinant UMI read abundance (log10)” value was 0.
With “ATACAAGCATGGACCGGTTTTCCCGGTAATCCGTATTTGAG (site ATTCAAGCTCT)” the “recombinant UMI read abundance (log10)” value was 0.673.
For “CCCACCGCATGGACCGGTTTTCCCGGTAATCCGTATTTGCG (site GCCACCGCTCG)”, the “recombinant UMI read abundance (log10)” value was 0.0563.
For “CGTGGTTCATGGACCGGTTTTCCCGGTAATCCGTATTTGCG (site CGTGGTTCTCG)”, the “recombinant UMI read abundance (log10)” value was 2.1.
With “CCGTCGACATGGACCGGTTTTCCCGGTAATCCGTATTTGGG (site CGGTCGACTCC)” the “recombinant UMI read abundance (log10)” value was 0.0251.
In the case of “CTAGTATCATGGACCGGTTTTCCCGGTAATCCGTATTTGAC (site CCAGTATCTGG)”, the “recombinant UMI read abundance (log10)” value is reported as 0.
In the case of “CACGGCCCATGGACCGGTTTTCCCGGTAATCCGTATTTGTT (site CAGGGCCCTAA)”, the “recombinant UMI read abundance (log10)” value is reported as 0.00724.
In the case of “CAGTTGGCATGGACCGGTTTTCCCGGTAATCCGTATTTGGA (site CAGTTGGCTTC)”, the “recombinant UMI read abundance (log10)” value is reported as 1.72.
In the case of “TTCAAACCATGGACCGGTTTTCCCGGTAATCCGTATTTGCG (site TTCAAACCTCG)”, the “recombinant UMI read abundance (log10)” value is reported as 0.
In the case of “CGCTAGCCATGGACCGGTTTTCCCGGTAATCCGTATTTGCC (site CACTAGCCTGG)”, the “recombinant UMI read abundance (log10)” value is reported as 0.0111.
In the case of “CGCTCAGCATGGACCGGTTTTCCCGGTAATCCGTATTTGGG (site TGCTCAGCTCC)”, the “recombinant UMI read abundance (log10)” value is reported as 0.00882.
In the case of “TCATTCTCATGGACCGGTTTTCCCGGTAATCCGTATTTGCA (site TCATCCTCTTG)”, the “recombinant UMI read abundance (log10)” value is reported as 0.
For “TTAGTTACATGGACCGGTTTTCCCGGTAATCCGTATTTGCC (site TTAGTTACTGG)”, the “recombinant UMI read abundance (log10)” value was 2.18.
In the case of “GAGGAGGCATGGACCGGTTTTCCCGGTAATCCGTATTTGTG (site GCGGAGGCTCA)”, the “recombinant UMI read abundance (log10)” value is reported as 0.367.
In the case of “AGATCTACATGGACCGGTTTTCCCGGTAATCCGTATTTGTG (site ACATCTACTCA)”, the “recombinant UMI read abundance (log10)” value is reported as 0.0151.
With “CTAGTATCATGGACCGGTTTTCCCGGTAATCCGTATTTGCA (site CTAGTATCTGT)” the “recombinant UMI read abundance (log10)” value was 0.00642.
With “ACCCCAACATGGACCGGTTTTCCCGGTAATCCGTATTTGTA (site ACCCCAACTTA)” the “recombinant UMI read abundance (log10)” value was 1.68.
In the case of “CTGGCATCATGGACCGGTTTTCCCGGTAATCCGTATTTGGC (site CTGGCATCTGC)”, the “recombinant UMI read abundance (log10)” value is reported as 2.75.
With “GGGATCTCATGGACCGGTTTTCCCGGTAATCCGTATTTGGG (site GGGATCTCTCC)” the “recombinant UMI read abundance (log10)” value was 1.71.
In the case of “GGATCATCATGGACCGGTTTTCCCGGTAATCCGTATTTGCT (site GGATCATCTAG)”, the “recombinant UMI read abundance (log10)” value is reported as 1.59.
In the case of “CCTGGTCCATGGACCGGTTTTCCCGGTAATCCGTATTTGCA (site CCGGGTCCTTG)”, the “recombinant UMI read abundance (log10)” value is reported as 0.
With “TGTGCGTCATGGACCGGTTTTCCCGGTAATCCGTATTTGGT (site TGTGCGTCTAC)” the “recombinant UMI read abundance (log10)” value was 0.348.
With “CATCGAACATGGACCGGTTTTCCCGGTAATCCGTATTTGAT (site CATCGAACTAT)” the “recombinant UMI read abundance (log10)” value was 0.616.
For “CTACGAACATGGACCGGTTTTCCCGGTAATCCGTATTTGGA (site CTACTAACTTC)”, the “recombinant UMI read abundance (log10)” value was 0.113.
With “TCAGGTACATGGACCGGTTTTCCCGGTAATCCGTATTTGCA (site TCAGGTACTTG)” the “recombinant UMI read abundance (log10)” value was 2.02.
With “CTACTAACATGGACCGGTTTTCCCGGTAATCCGTATTTGGG (site CTACTAACTTC)” the “recombinant UMI read abundance (log10)” value was 0.0179.
In the case of “CATATTGCATGGACCGGTTTTCCCGGTAATCCGTATTTGTT (site CATATTGCTAA)”, the “recombinant UMI read abundance (log10)” value is reported as 1.21.
For “CGGACTTCATGGACCGGTTTTCCCGGTAATCCGTATTTGCC (site CGGACTTCTGG)”, the “recombinant UMI read abundance (log10)” value was 1.27.
With “TTATGTCCATGGACCGGTTTTCCCGGTAATCCGTATTTGTA (site TTATGTCCTTA)” the “recombinant UMI read abundance (log10)” value was 0.134.
In the case of “AAGGACTCATGGACCGGTTTTCCCGGTAATCCGTATTTGTT (site AAGGACTCTAA)”, the “recombinant UMI read abundance (log10)” value is reported as 2.9.
For “CTACTATCATGGACCGGTTTTCCCGGTAATCCGTATTTGCC (site CTAGTATCTGT)”, the “recombinant UMI read abundance (log10)” value was 0.
For “CACGGCCCATGGACCGGTTTTCCCGGTAATCCGTATTTGTT (site CACCGCCCTAA)”, the “recombinant UMI read abundance (log10)” value was 0.0224.
With “GCTTGCCCATGGACCGGTTTTCCCGGTAATCCGTATTTGTT (site GCTTGCCCTAC)” the “recombinant UMI read abundance (log10)” value was 0.0939.
For “CAGTTAGCATGGACCGGTTTTCCCGGTAATCCGTATTTGTG (site CTGTTAGCTCA)”, the “recombinant UMI read abundance (log10)” value was 0.364.
In the case of “ACTGGATCATGGACCGGTTTTCCCGGTAATCCGTATTTGAG (site ACTGGATCTCT)”, the “recombinant UMI read abundance (log10)” value is reported as 2.41.
In the case of “CTAGTATCATGGACCGGTTTTCCCGGTAATCCGTATTTGAC (site CTCGTATCTGT)”, the “recombinant UMI read abundance (log10)” value is reported as 0.0723.
In the case of “AGGAAGGCATGGACCGGTTTTCCCGGTAATCCGTATTTGCT (site AGAAAGGCTAG)”, the “recombinant UMI read abundance (log10)” value is reported as 2.69.
With “TAGCCGGCATGGACCGGTTTTCCCGGTAATCCGTATTTGGC (site TTGCCGGCTGC)” the “recombinant UMI read abundance (log10)” value was 0.
For “ATTGAGACATGGACCGGTTTTCCCGGTAATCCGTATTTGGT (site TTTGAGACTAC)”, the “recombinant UMI read abundance (log10)” value was 0.435.
For “AGGAAAACATGGACCGGTTTTCCCGGTAATCCGTATTTGCA (site AGGAAAACTTG)”, the “recombinant UMI read abundance (log10)” value was 0.959.
In the case of “CGAATCCCATGGACCGGTTTTCCCGGTAATCCGTATTTGCA (site CGAATCCCTTG)”, the “recombinant UMI read abundance (log10)” value is reported as 1.55.
With “CGTGGAACATGGACCGGTTTTCCCGGTAATCCGTATTTGTT (site CATGGAACTAA)” the “recombinant UMI read abundance (log10)” value was 0.0194.
With “ATTGTGACATGGACCGGTTTTCCCGGTAATCCGTATTTGGT (site ATTGCGACTAC)” the “recombinant UMI read abundance (log10)” value was 0.0121.
In the case of “AGCCTTTCATGGACCGGTTTTCCCGGTAATCCGTATTTGAG (site AGCCTTTCTTT)”, the “recombinant UMI read abundance (log10)” value is reported as 0.007.
With “GCGAAGCCATGGACCGGTTTTCCCGGTAATCCGTATTTGGG (site GCGAAGGCTCC)” the “recombinant UMI read abundance (log10)” value was 0.
For “CGGAATCCATGGACCGGTTTTCCCGGTAATCCGTATTTGTA (site CGGAATCCTTA)”, the “recombinant UMI read abundance (log10)” value was 1.29.
For “AGCCTAGCATGGACCGGTTTTCCCGGTAATCCGTATTTGGT (site AGCCTAGCTAA)”, the “recombinant UMI read abundance (log10)” value was 0.168.
For “CAAGCCCCATGGACCGGTTTTCCCGGTAATCCGTATTTGTG (site CAAGCTCCTCA)”, the “recombinant UMI read abundance (log10)” value was 0.0205.
With “CTAGTATCATGGACCGGTTTTCCCGGTAATCCGTATTTGAC (site CGATTATCTGT)” the “recombinant UMI read abundance (log10)” value was 0.
With “TAGCTAGCATGGACCGGTTTTCCCGGTAATCCGTATTTGAG (site TAGCTAGCTGT)” the “recombinant UMI read abundance (log10)” value was 0.
With “TAGCATTCATGGACCGGTTTTCCCGGTAATCCGTATTTGGT (site TAGCATTCTAC)” the “recombinant UMI read abundance (log10)” value was 1.23.
With “TCAGTCACATGGACCGGTTTTCCCGGTAATCCGTATTTGAG (site TCAGTCACTCT)” the “recombinant UMI read abundance (log10)” value was 0.702.
For “CATGCGCCATGGACCGGTTTTCCCGGTAATCCGTATTTGTG (site CAGGCGCCTCA)”, the “recombinant UMI read abundance (log10)” value was 0.025.
For “GAGCCCTCATGGACCGGTTTTCCCGGTAATCCGTATTTGTC (site GAGCCCTCTGA)”, the “recombinant UMI read abundance (log10)” value was 3.73.
In the case of “AGGGAAACATGGACCGGTTTTCCCGGTAATCCGTATTTGCA (site AGGAAGACTTG)”, the “recombinant UMI read abundance (log10)” value is reported as 0.301.
In the case of “TTCCGCTCATGGACCGGTTTTCCCGGTAATCCGTATTTGTG (site TTCCGCTCTCA)”, the “recombinant UMI read abundance (log10)” value is reported as 0.
In the case of “GACAAACCATGGACCGGTTTTCCCGGTAATCCGTATTTGCT (site GACAAACCTAC)”, the “recombinant UMI read abundance (log10)” value is reported as 0.
With “CTTGACGCATGGACCGGTTTTCCCGGTAATCCGTATTTGGT (site CTTGACGCTAC)” the “recombinant UMI read abundance (log10)” value was 0.601.
For “CAGGCGCCATGGACCGGTTTTCCCGGTAATCCGTATTTGTG (site CAAGCGCCTCA)”, the “recombinant UMI read abundance (log10)” value was 0.0213.
With “ACGCACGCATGGACCGGTTTTCCCGGTAATCCGTATTTGGG (site AAGCACGCTCC)” the “recombinant UMI read abundance (log10)” value was 0.0265.
For “TACTTGACATGGACCGGTTTTCCCGGTAATCCGTATTTGCT (site TACTTGACTTG)”, the “recombinant UMI read abundance (log10)” value was 0.00876.
For “GATTTCGCATGGACCGGTTTTCCCGGTAATCCGTATTTGGG (site GATTTCGCTCC)”, the “recombinant UMI read abundance (log10)” value was 0.00434.
For “TGTACTCCATGGACCGGTTTTCCCGGTAATCCGTATTTGAC (site TGTACTCCTGT)”, the “recombinant UMI read abundance (log10)” value was 0.
With “ATCCAAGCATGGACCGGTTTTCCCGGTAATCCGTATTTGAC (site ATCCAAGCTAT)” the “recombinant UMI read abundance (log10)” value was 0.937.
For “CAGTCGACATGGACCGGTTTTCCCGGTAATCCGTATTTGTG (site CAGTCGACTCC)”, the “recombinant UMI read abundance (log10)” value was 0.022.
With “CTCTTCACATGGACCGGTTTTCCCGGTAATCCGTATTTGCT (site CTCTGCACTAG)” the “recombinant UMI read abundance (log10)” value was 0.
With “AACGTAACATGGACCGGTTTTCCCGGTAATCCGTATTTGCT (site AACGTAACTAG)” the “recombinant UMI read abundance (log10)” value was 2.51.
For “TCGCTAGCATGGACCGGTTTTCCCGGTAATCCGTATTTGAA (site TAGCTAGCTTT)”, the “recombinant UMI read abundance (log10)” value was 0.00313.
In the case of “CAGTGCTCATGGACCGGTTTTCCCGGTAATCCGTATTTGAA (site CATTGCTCTTT)”, the “recombinant UMI read abundance (log10)” value is reported as 0.0098.
For “TTAGTATCATGGACCGGTTTTCCCGGTAATCCGTATTTGCA (site ACAGTATCTTG)”, the “recombinant UMI read abundance (log10)” value was 1.99.
